Reference: the COVID Moonshot data (paper PMC7615835)
“And” between values parts separate entries of the source, which are not always exact repeats. Identical values can stand only once.

Tests used:
[1] = molecular target: SARS-CoV-2 Main Protease (SARS-CoV-2) (UniProt P0DTD1)
[2] = in vivo, iv, 0.5 mg/kg

Compound	IC50 [1]	AUC(0-inf) ([2]; rat)	AUC(0-t) ([2]; rat)	C0 ([2]; rat)	MRT inf ([2]; rat)	MRT last ([2]; rat)	Vd ([2]; rat)	clearance ([2]; rat)	half-life ([2]; rat)	also measured
O=C(Nc1cncc2cc(Cl)ccc12)C1CCS(=O)(=O)c2ccc(Cl)cc21 (stereo not given)	838 nM	2140 ng·h/mL and 2940 ng·h/mL	1940 ng·h/mL and 2700 ng·h/mL	769 ng/mL and 1200 ng/mL	193 min and 199 min	148 min and 151 min	0.774 L/kg and 0.556 L/kg	3.9 mL/min/kg and 2.9 mL/min/kg	141 min and 133 min	
COc1ccc2cncc(NC(=O)[C@H]3CCNc4cc(Cl)c(Cl)cc43)c2c1 (stereo in doubt)	< 50 nM and 82.3 nM and 53.6 nM									AUC(0-inf) ([2]; mouse): 113 ng·h/mL and 130 ng·h/mL; AUC(0-t) ([2]; mouse): 113 ng·h/mL and 128 ng·h/mL; C0 ([2]; mouse): 179 ng/mL and 202 ng/mL; MRT inf ([2]; mouse): 28.6 min and 30.8 min; MRT last ([2]; mouse): 27.6 min and 28.9 min; Vd ([2]; mouse): 2.09 L/kg and 1.97 L/kg; clearance ([2]; mouse): 73.4 mL/min/kg and 64 mL/min/kg; half-life ([2]; mouse): 16.1 min and 19.4 min
COC(=O)[C@@H]1C[C@@H](NC(=O)C(c2cccnc2)N(C(=O)c2cocn2)c2ccc(C(C)(C)C)cc2)CN1C(=O)OC(C)(C)C (stereo in doubt)	6820 nM									CC50 (vero): > 10000 nM
COCCN1CCC(C(=O)Nc2cncc3ccccc23)c2cc(Cl)ccc21 (stereo not given)	564 nM									CC50 (a549): > 9990 nM
Cn1ncc2cncc(NC(=O)Cc3cccc(Cl)c3)c21	1500 nM	178 ng·h/mL and 250 ng·h/mL	178 ng·h/mL and 248 ng·h/mL	820 ng/mL and 1030 ng/mL	19.3 min and 15.2 min	14.9 min and 18.1 min	0.709 L/kg and 0.64 L/kg	46.7 mL/min/kg and 34.6 mL/min/kg	14.9 min and 17.9 min	
O=C(Nc1cncc2ccccc12)C1CN(S(=O)(=O)CCO)Cc2ccc(Cl)cc21 (stereo not given)	232 nM	241 ng·h/mL and 283 ng·h/mL	236 ng·h/mL and 280 ng·h/mL	441 ng/mL and 590 ng/mL	56.2 min and 49.7 min	44.2 min and 52.6 min	1.72 L/kg and 1.66 L/kg	34.6 mL/min/kg and 29.6 mL/min/kg	47.1 min and 72.6 min	
O=C1NCC(C(=O)Nc2cncc3ccccc23)c2cc(Cl)ccc21 (stereo not given)	208 nM	377 ng·h/mL and 428 ng·h/mL and 182 ng·h/mL	374 ng·h/mL and 422 ng·h/mL and 180 ng·h/mL	443 ng/mL and 648 ng/mL and 439 ng/mL	57.1 min and 75 min and 37.4 min	71.4 min and 53 min and 35 min	1.66 L/kg and 1.12 L/kg and 1.75 L/kg	22.1 mL/min/kg and 19.5 mL/min/kg and 46.8 mL/min/kg	64.8 min and 52 min and 34.7 min	
O=C(Cn1nc2n(c(=O)c1=O)CCC2)NC(C(=O)Nc1cncc2ccccc12)c1cccc(Cl)c1 (stereo not given)										CC50 (vero): > 9990 nM
O=C(Cc1cccc(Cl)c1)Nc1c[nH]c(=O)c2ccccc12	> 99500 nM	200 ng·h/mL and 464 ng·h/mL	192 ng·h/mL and 458 ng·h/mL	496 ng/mL and 718 ng/mL	42.7 min and 34.1 min	29.2 min and 40.5 min	1.42 L/kg and 0.802 L/kg	41.6 mL/min/kg and 19.6 mL/min/kg	26.2 min and 25.4 min	
CS(=O)(=O)N1Cc2ccc(Cl)cc2C(C(=O)Nc2cncc3c2CCCC3)C1 (stereo not given)	642 nM	196 ng·h/mL and 264 ng·h/mL	195 ng·h/mL and 262 ng·h/mL	541 ng/mL and 625 ng/mL	35.6 min and 31 min	29.8 min and 34 min	1.32 L/kg and 1.14 L/kg	42.5 mL/min/kg and 33 mL/min/kg	30.6 min and 25.6 min	
CS(=O)(=O)N1Cc2ccc(Cl)cc2C(C(=O)Nc2cncc3cccc(F)c23)C1 (stereo not given)	951 nM	110 ng·h/mL and 136 ng·h/mL	107 ng·h/mL and 134 ng·h/mL	332 ng/mL and 376 ng/mL	25.8 min and 25.9 min	22.9 min and 23.5 min	1.57 L/kg and 1.26 L/kg	60.6 mL/min/kg and 48.6 mL/min/kg	23.9 min and 20.4 min	
CN(C)C(=O)CC1(C(=O)Nc2cncc3ccccc23)CCOc2ccc(Cl)cc21 (stereo not given)	2920 nM									CC50 (a549): > 9990 nM
CCCc1cc(Cl)cc(CC(=O)Nc2cncc3ccccc23)c1	2650 nM									CC50 (a549): > 9990 nM
CNC(=O)N1Cc2ccc(Cl)cc2C(C(=O)Nc2cncc3ccccc23)C1 (stereo not given)	272 nM									AUC(0-inf) ([2]; mouse): 97.6 ng·h/mL and 117 ng·h/mL; AUC(0-t) ([2]; mouse): 94.9 ng·h/mL and 115 ng·h/mL; C0 ([2]; mouse): 328 ng/mL and 570 ng/mL; MRT inf ([2]; mouse): 16.4 min and 13.4 min; MRT last ([2]; mouse): 14.7 min and 12.5 min; Vd ([2]; mouse): 1.32 L/kg and 0.896 L/kg; clearance ([2]; mouse): 80.4 mL/min/kg and 68.2 mL/min/kg; half-life ([2]; mouse): 11.5 min and 9.96 min
